Earlier results as cited in patent publication US6030942A, “Peptides peptide analogs peptidomimetics and other small molecules useful for inhibiting the activity of ribonucleotide reductase” (The Trustees of the University of Pennsylvania, priority 1998, dated 2000).
Square brackets hold non-standard residues; d marks the D form. Peptide text beside a SMILES is read from it. * marks the point of attachment. Asp(3,3-(CH2)4) = N[C@H](C(=O)O)C1(C(=O)O)CCCC1; Dibenzylacetyl = O=C(C(Cc1ccccc1)Cc1ccccc1)*; Leu(γ-Me)ol = CC(C)(C)C[C@@H](CO)N*; Tle = CC(C)(C)[C@H](N)C(=O)O; NMeV = CN[C@H](C(=O)O)C(C)C; Pyrrolidide = C1CCN(*)C1

How the values were obtained:
HSV type 1 = conditions: cited from earlier work
HSV type 2 = conditions: cell culture; read-out: EC50, replication of HSV type 2; cited from earlier work
HSV-1 = conditions: murine ocular model; cited from earlier work
HSV = conditions: cited from earlier work

| Compound | Combination with acyclovir in cell culture (HSV type 1; HSV types 1 and 2) | EC50 (HSV type 1; cell culture, read-out: EC50, replication of HSV type 1) [µM] | EC50 (HSV type 2) [µM] | Severity of HSV-1-induced keratitis (HSV-1) | Inhibition of viral growth in cell culture (HSV) |
| --- | --- | --- | --- | --- | --- |
| CC(C)[C@@H](C(=O)N[C@H](C(=O)N[C@@H](CC(=O)N1CCCC1)C(=O)N[C@H](C(=O)N[C@H](CO)CC(C)(C)C)C1(C(=O)O)CCCC1)C(C)(C)C)N(C)C(=O)C(Cc1ccccc1)Cc1ccccc1 [BI-LD-1263] (Dibenzylacetyl-[NMeV][Tle]D(Pyrrolidide)[Asp(3,3-(CH2)4)]-{Leu(γ-Me)ol}) | synergistic effect | 3 | 4 | reduces the severity | – |
| YAGAVVNDL | – | – | – | – | did not inhibit viral growth in cell culture |
